Calls of active or inactive are those of the source.
What was measured:
KB = experiment: Antiviral activity against Rhinovirus type 13 infected in human KB cells assessed as inhibition of virus-induced cytopathic effect; format: functional, cell-based; settings: Human rhinovirus A13
Human alphaherpesvirus 1 = experiment: Antiviral activity against Herpes virus type 1 infected in human KB cells assessed as inhibition of virus-induced cytopathic effect; format: functional, organism-based
Human respirovirus 3 = experiment: Antiviral activity against Parainfluenza virus type 3 infected in human KB cells assessed as inhibition of virus-induced cytopathic effect; format: functional, organism-based

Measured: Activity

Nc1cc2[nH]ncc2c(=O)[nH]1
inactive: all assays above
